Laboratory results: ChEMBL document CHEMBL1128255, “Synthesis of 11 beta-[18F]fluoro-5 alpha-dihydrotestosterone and 11 beta-[18F]fluoro-19-nor-5 alpha-dihydrotestosterone: preparation via halofluorination-reduction, receptor binding, and tissue distribution” (J Med Chem, 1995)

Key:
[1] = %ID/g is percent injected dose per gram of tissue and in vivo distribution of compound obtained after 2 hour (blocked) in blood; type: ADME, organism-based
[2] = %ID/g is percent injected dose per gram of tissue and in vivo distribution of compound obtained after 2 hour (low) in kidney; type: ADME, organism-based
[3] = %ID/g is percent injected dose per gram of tissue and in vivo distribution of compound obtained after 2 hour in prostate (d); type: ADME, organism-based, Prostate gland
[4] = %ID/g is percent injected dose per gram of tissue and in vivo distribution of compound obtained after 2 hour (low) in bladder; type: ADME, organism-based, Urinary bladder
[5] = %ID/g is percent injected dose per gram of tissue and in vivo distribution of compound obtained after 2 hour (low) in bone; type: ADME, organism-based, Bone element
[6] = %ID/g is percent injected dose per gram of tissue and in vivo distribution of compound obtained after 2 hour in spleen; type: ADME, organism-based
[7] = %ID/g is percent injected dose per gram of tissue and in vivo distribution of compound obtained after 2 hour (blocked) in bladder; type: ADME, organism-based, Urinary bladder
[8] = %ID/g is percent injected dose per gram of tissue and in vivo distribution of compound obtained after 4 hour in liver; type: ADME, organism-based
[9] = %ID/g is percent injected dose per gram of tissue and in vivo distribution of compound obtained after 1 hour in muscle; type: ADME, organism-based
[10] = %ID/g is percent injected dose per gram of tissue and in vivo distribution of compound obtained after 2 hr in kidney; type: ADME, organism-based
[11] = %ID/g is percent injected dose per gram of tissue and in vivo distribution of compound obtained after 1 hour in prostate (v)/muscle; type: ADME, organism-based
[12] = %ID/g is percent injected dose per gram of tissue and in vivo distribution of compound obtained after 1 hour in prostate (d)/biood; type: ADME, organism-based, Prostate gland; conditions: other tissue
[13] = biological target: T1, Androgen receptor (Rattus norvegicus) (UniProt P15207)
T1 sequence (whole entry): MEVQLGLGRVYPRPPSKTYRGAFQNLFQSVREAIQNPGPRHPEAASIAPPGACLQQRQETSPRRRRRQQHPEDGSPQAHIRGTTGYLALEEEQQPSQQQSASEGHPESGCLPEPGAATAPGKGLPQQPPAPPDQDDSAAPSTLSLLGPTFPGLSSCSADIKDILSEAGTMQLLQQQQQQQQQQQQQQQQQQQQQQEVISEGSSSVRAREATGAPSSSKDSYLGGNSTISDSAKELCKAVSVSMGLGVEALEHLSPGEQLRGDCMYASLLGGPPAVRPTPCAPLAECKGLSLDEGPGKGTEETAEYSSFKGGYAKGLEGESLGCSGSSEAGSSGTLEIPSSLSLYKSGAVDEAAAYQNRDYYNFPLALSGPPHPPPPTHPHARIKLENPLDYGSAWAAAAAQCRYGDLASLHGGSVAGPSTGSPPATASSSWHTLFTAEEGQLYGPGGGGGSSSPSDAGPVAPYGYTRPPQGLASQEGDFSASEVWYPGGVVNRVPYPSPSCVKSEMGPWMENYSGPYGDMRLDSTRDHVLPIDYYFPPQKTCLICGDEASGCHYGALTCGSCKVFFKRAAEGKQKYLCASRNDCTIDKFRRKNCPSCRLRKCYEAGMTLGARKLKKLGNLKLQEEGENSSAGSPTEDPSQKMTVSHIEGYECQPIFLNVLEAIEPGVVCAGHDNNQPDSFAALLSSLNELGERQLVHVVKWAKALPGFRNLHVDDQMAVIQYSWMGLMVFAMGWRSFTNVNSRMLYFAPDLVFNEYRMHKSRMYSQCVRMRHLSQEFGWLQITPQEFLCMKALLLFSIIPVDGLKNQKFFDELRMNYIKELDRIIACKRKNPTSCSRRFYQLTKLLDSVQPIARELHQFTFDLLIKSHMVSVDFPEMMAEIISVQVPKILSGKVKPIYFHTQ
Description: Binding selectivity index (BSI) as ratio of RBA for androgen receptor to non-specific binding of R1881

[14] = %ID/g is percent injected dose per gram of tissue and in vivo distribution of compound obtained after 4 hour in lung; type: ADME, organism-based
[15] = %ID/g is percent injected dose per gram of tissue and in vivo distribution of compound obtained after 2 hour (blocked) in spleen; type: ADME, organism-based
[16] = %ID/g is percent injected dose per gram of tissue and in vivo distribution of compound obtained after 2 hour (low) in blood; type: ADME, organism-based
[17] = %ID/g is percent injected dose per gram of tissue and in vivo distribution of compound obtained after 1 hour in prostate (v)/blood; type: ADME, organism-based
[18] = %ID/g is percent injected dose per gram of tissue and in vivo distribution of compound obtained after 4 hour in fat; type: ADME, organism-based, Adipose tissue
[19] = %ID/g is percent injected dose per gram of tissue and in vivo distribution of compound obtained after 2 hour (blocked) in prostate (d)/muscle; type: ADME, organism-based
[20] = %ID/g is percent injected dose per gram of tissue and in vivo distribution of compound obtained after 2 hour (low) in prostate (d); type: ADME, organism-based, Prostate gland
[21] = %ID/g is percent injected dose per gram of tissue and in vivo distribution of compound obtained after 2 hour (blocked) in lung; type: ADME, organism-based
[22] = %ID/g is percent injected dose per gram of tissue and in vivo distribution of compound obtained after 4 hour in blood; type: ADME, organism-based
[23] = %ID/g is percent injected dose per gram of tissue and in vivo distribution of compound obtained after 2 hour in bone; type: ADME, organism-based, Bone element
[24] = %ID/g is percent injected dose per gram of tissue and in vivo distribution of compound obtained after 2 hour (blocked) in muscle; type: ADME, organism-based
[25] = %ID/g is percent injected dose per gram of tissue and in vivo distribution of compound obtained after 2 hour (blocked) in prostate (v)/blood; type: ADME, organism-based; conditions: other tissue
physchem = conditions: octanol/water
Description: Partition coefficient (logP)

[26] = %ID/g is percent injected dose per gram of tissue and in vivo distribution of compound obtained after 2 hour in prostate (d)/muscle; type: ADME, organism-based
[27] = %ID/g is percent injected dose per gram of tissue and in vivo distribution of compound obtained after 2 hour in fat; type: ADME, organism-based, Adipose tissue
[28] = %ID/g is percent injected dose per gram of tissue and in vivo distribution of compound obtained after 2 hour in prostate (v); type: ADME, organism-based, Prostate gland
[29] = %ID/g is percent injected dose per gram of tissue and in vivo distribution of compound obtained after 4 hour in prostate (d)/muscle; type: ADME, organism-based
[30] = %ID/g is percent injected dose per gram of tissue and in vivo distribution of compound obtained after 1 hour in fat; type: ADME, organism-based, Adipose tissue
[31] = %ID/g is percent injected dose per gram of tissue and in vivo distribution of compound obtained after 2 hour (low) in prostate (d)/biood; type: ADME, organism-based, Prostate gland
[32] = %ID/g is percent injected dose per gram of tissue and in vivo distribution of compound obtained after 1 hour in prostate (v); type: ADME, organism-based, Prostate gland
[33] = %ID/g is percent injected dose per gram of tissue and in vivo distribution of compound obtained after 2 hour (low) in spleen; type: ADME, organism-based
[34] = %ID/g is percent injected dose per gram of tissue and in vivo distribution of compound obtained after 2 hour (blocked) in fat; type: ADME, organism-based, Adipose tissue
[35] = %ID/g is percent injected dose per gram of tissue and in vivo distribution of compound obtained after 4 hour in prostate (d)/biood; type: ADME, organism-based, Prostate gland
[36] = %ID/g is percent injected dose per gram of tissue and in vivo distribution of compound obtained after 2 hour (blocked) in liver; type: ADME, organism-based

SMILES	ID/g [1] [%]	ID/g [2] [%]	ID/g [3] [%]	ID/g [4] [%]	ID/g [5] [%]	ID/g [6] [%]	ID/g [7] [%]	ID/g [8] [%]	ID/g [9] [%]	ID/g [10] [%]	ID/g [11] [%]	ID/g [12] [%]	BSI [13]	ID/g [14] [%]	ID/g [15] [%]	ID/g [16] [%]	ID/g [17] [%]	ID/g [18] [%]	ID/g [19] [%]	ID/g [20] [%]	other results
C[C@]12CCC(=O)C[C@@H]1CC[C@@H]1[C@@H]2[C@@H](F)C[C@]2(C)[C@@H](O)CC[C@@H]12	0.048	0.145	0.352	0.263	0.059	0.03	0.903	0.415	0.059	0.229	8.208	5.16	42.8	0.035	0.026	0.022	5.41	0.012	3.089	0.229	ID/g [21]: 0.039%; ID/g [22]: 0.028%; ID/g [23]: 0.061%; ID/g [24]: 0.023%; ID/g [25]: 1.357%; logP (physchem): 3.5; ID/g [26]: 10.141%; ID/g [27]: 0.024%; ID/g [28]: 0.317%; ID/g [29]: 17.573%; ID/g [30]: 0.061%; ID/g [31]: 11.358%; ID/g [32]: 0.486%; ID/g [33]: 0.017%; ID/g [34]: 0.026%; ID/g [35]: 10.827%; ID/g [36]: 0.468%
C[C@]12C[C@H](F)[C@H]3[C@@H](CC[C@H]4CC(=O)CC[C@@H]43)[C@@H]1CC[C@@H]2O	0.061	0.251	0.132	0.686	0.096	0.036	11.404	0.863	0.064	0.276	4.4	2.531	91.8	0.046	0.032	0.047	3.054	0.022	1.61	0.139	ID/g [21]: 0.054%; ID/g [22]: 0.035%; ID/g [23]: 0.077%; ID/g [24]: 0.03%; ID/g [25]: 0.88%; logP (physchem): 3.1; ID/g [26]: 3.882%; ID/g [27]: 0.041%; ID/g [28]: 0.12%; ID/g [29]: 3.98%; ID/g [30]: 0.069%; ID/g [31]: 3.126%; ID/g [32]: 0.284%; ID/g [33]: 0.049%; ID/g [34]: 0.036%; ID/g [35]: 2.682%; ID/g [36]: 1.189%
